The record followed here is ChEMBL document CHEMBL5727805, “Bicyclic quinazolinone derivatives” (2020).

For the test, the target named is Autotaxin (Homo sapiens, UniProt Q13822). As to the kind of experiment: Human ATX Enzyme Inhibition Assay: ATX inhibition was measured by a fluorescence quenching assay using a specifically labeled substrate analogue (MR121 substrate). To obtain this MR121 substrate, BOC and TBS protected 6-amino-hexanoic acid (R)-3-({2-[3-(2-{2-[2-(2-amino-ethoxy)-ethoxy]-ethoxy}-ethoxy)-propionylamino]-ethoxy}-hydroxy-phosphoryloxy)-2-hydroxy-propyl ester (Ferguson et al., Org. Lett. 2006, 8, 2023) was labeled with MR121 fluorophore [CAS RN 185308-24-1], 1-(3-carboxypropyl)-11-ethyl-1,2,3,4,8,9,10,11-octahydro-dipyrido[3,2-b:2′,3′-i]phenoxazin-13-ium) on the free amine of the ethanolamine side and then, after deprotection, subsequently with tryptophan on the side of the aminohexanoic acid.Assay working solutions were made as follows:Assay buffer (50 mM Tris-HCl, 140 mM NaCl, 5 mM KCl, 1 mM CaCl2, 1 mM MgCl2, 0.01% Triton-X-100, pH 8.0;ATX solution: ATX (human His-tagged) stock solution (1.08 mg/mL in 20 mM bicine, pH 8.5, 0.15 M NaCl, 10% glycerol, 0.3% CHAPS, 0.02% NaN3), diluted to 1.4-2.5× final concentration in assay buffer;MR121 substrate solution: MR121 substrate stock solution (800 μM MR121 substrate in DMSO), diluted to 2-5× final concentration in assay buffer.Test compounds (10 mM stock in DMSO, 8 μL) were obtained in 384 well sample plates (Corning Costar #3655) and diluted with 8 μL DMSO. […].

The term IC50 denotes the concentration that gives 50% inhibition. A higher IC50 goes with a need for much substance.

Each structure is given as a SMILES string.

Take `CC(=O)N1CCCN(c2ccc3ncn(CC(=O)NCc4ccc(Cl)c(Cl)c4)c(=O)c3c2)CC1`: the IC50 came to 35 nM.
